Measured values from US20260258073A1, “CRYSTALLINE FORMS OF A NEUROACTIVE STEROID” (SAGE THERAPEUTICS, INC., priority 2022, published 2026).

What was measured:
[1] = Solid form stability on heating and cooling, checked by XRPD; format: physicochemical; settings: cooling down to room temperature under nitrogen protection, re-exposure to ambient conditions
Procedure: A PANalytical Empyrean X-ray powder diffractometer was used to collect X-ray diffraction patters as described herein. The diffraction peak position was calibrated using a PANalytical Si reference standard disc.
Form D was generated via vacuum dry of Form X. The XRPD pattern for Form D is provided in FIG. 3A and characteristic peaks are summarized in Table 20. […] (peak temperature) before a possible melting peak at 204.0° C. (peak temperature).
Form E was generated via liquid diffusion in BuOH/n-heptane of Form A at RT. […] (peak temperature) before possible melting peak at 203.1° C. (peak temperature). […] As evidenced by the presence of n-butanol methylene proton at ~3.7 ppm (1.5:1, molar ratio of n-butanol/API) detected by ^1H NMR in FIG. 4D, Form E was deemed to be an n-butanol solvate.

[2] = Dynamic vapor sorption (DVS) isotherm of the solid form; format: physicochemical
Procedure: DVS was measured using a SMS (Surface Measurement Systems) DVS Intrinsic. The relative humidity at 25° C. was calibrated against deliquescence point of LiCl, Mg(NO3)2 and KCl.
To investigate the solid form stability as a function of humidity, a DVS isotherm plot of Form A was collected at 25° C.

Compound: C[C@H](CC[C@](C)(O)C(F)(F)F)[C@H]1CC[C@H]2[C@@H]3CC=C4C[C@@](C)(O)CC[C@]4(C)[C@H]3CC[C@]12C [Form E]
- solid form after heating (XRPD) ([1]; heating to 140° C.): converted to Form B

Compound: C[C@H](CC[C@](C)(O)C(F)(F)F)[C@H]1CC[C@H]2[C@@H]3CC=C4C[C@@](C)(O)CC[C@]4(C)[C@H]3CC[C@]12C [Form D]
- solid form after heating (XRPD) ([1]; heating to 150° C.): converted to Form A

Compound: C[C@H](CC[C@](C)(O)C(F)(F)F)[C@H]1CC[C@H]2[C@@H]3CC=C4C[C@@](C)(O)CC[C@]4(C)[C@H]3CC[C@]12C [Form A]
- water uptake (DVS) ([2]; 25° C./80% RH): 0.05%
- form change after DVS test (XRPD overlay before and after) ([2]; DVS isotherm collected at 25° C.): no form change
- hygroscopicity ([2]; from DVS at 25° C./80% RH): non-hygroscopic
